Data on six compounds can be found in ChEMBL document CHEMBL1201862, “PubChem BioAssay data set” (2004).

Experiment in all cases: DTP human tumour cell line panel, 48 h
Experiment [1] concerns DLD-1.
Experiment [2] deals with DMS-114.
Experiment [3] deals with EKVX.
In experiment [4] the test system is HCT-116.
The test system of experiment [5] is HOP-62.
For experiment [6], the system named is HOP-92.
Experiment [7] relates to LOX IMVI.
For experiment [8], the system named is Malme-3M.
Experiment [9] concerns NCI-H460.
In experiment [10] the test system is OVCAR-4.
Experiment [11] concerns OVCAR-5.
The test system of experiment [12] is OVCAR-8.
For experiment [13], the system named is PC-3.
For experiment [14], the system named is RPMI-8226.
For experiment [15], the system named is RXF 393.
The subject of experiment [16] is SF-268.
Experiment [17] concerns SK-MEL-5.
For experiment [18], the system named is SNB-19.
Experiment [19] has as its system SW-620.
Experiment [20] has as its system UO-31.

Each structure is given as a SMILES string.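 How tested: cells in 96-well plates exposed to compound for 48 hours at five concentrations. Here, GI50 denotes the concentration required for 50% inhibition of growth.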 Calls of active or inactive are those of the source. Cut-off read from the data, not from the text of the source: active = GI50 up to about 1.1 µM and inactive = higher. Where only a bound is given, the exact number is not on record here.

As to `COc1ccc(/C=C\c2cc(OC)c(OC)c(OC)c2)cc1OCC(=O)O`, the GI50 in experiment [1] is 7.45 µM (inactive); in [2], 4.16 µM (inactive); in [3], > 96.8 µM (inactive); in experiment [4] it was 3.46 µM (inactive); in [5], 8.36 µM (inactive); in experiment [6], 9.89 µM (inactive). The GI50 is 12.2 µM (inactive) in experiment [7]; 4.78 µM (inactive) in experiment [8]; 4.43 µM (inactive) in experiment [9]; 20.7 µM (inactive) in experiment [10]; > 100 µM (inactive) in experiment [11]; 5.64 µM (inactive) in [12]. Also, the GI50 in experiment [13] was 5.5 µM (inactive); in experiment [14] it was 4.84 µM (inactive); in [15], 6.15 µM (inactive); in experiment [16] it was 10.9 µM (inactive); in experiment [17], 4.45 µM (inactive); in experiment [18], 4.18 µM (inactive). Also, the GI50 is 3.78 µM (inactive) in experiment [19] and 7.13 µM (inactive) in [20].
`O=C(CC1SC(Nc2ccccc2Cl)=NC1=O)Nc1ccc(Cl)cc1Cl` (centres undefined): the GI50 in experiment [1] was > 100 µM (inactive); in experiment [2], 78.2 µM (inactive); in experiment [3], > 100 µM (inactive); in experiment [4], > 100 µM (inactive); in [5], > 100 µM (inactive); in [6], > 100 µM (inactive). Also, the GI50 in [7], in experiment [8], in experiment [9], in experiment [10], in experiment [11] and in experiment [12] was > 100 µM (inactive) each time. The GI50 was 54 µM (inactive) in experiment [14]; > 100 µM (inactive) in experiment [15]; > 100 µM (inactive) in experiment [16]; > 100 µM (inactive) in [17]; > 100 µM (inactive) in experiment [18]; > 100 µM (inactive) in experiment [19]. The GI50 in [20] was > 100 µM (inactive).
Take `CCc1cc2c(Nc3ccccc3)c3c(nc2s1)CCCC3`: the GI50 in experiment [1] was 19.4 µM (inactive); in experiment [2], 27.5 µM (inactive); in [3], > 100 µM (inactive); in experiment [4], 9.35 µM (inactive); in experiment [5], 79.4 µM (inactive); in [6], 16.7 µM (inactive). In addition, the GI50 in [7] was 11.4 µM (inactive); in experiment [8], > 100 µM (inactive); in experiment [9], > 100 µM (inactive); in [10] it was 24 µM (inactive); in experiment [11], > 100 µM (inactive); in [12] it was > 100 µM (inactive). Besides, the GI50 in experiment [14] is 3.71 µM (inactive); in [15] it was 22.4 µM (inactive); in experiment [16], 76.6 µM (inactive); in experiment [17] it was 4.79 µM (inactive); in [18] it was > 100 µM (inactive); in [19], 80.5 µM (inactive). Moreover, in [20], the GI50 is 3.99 µM (inactive).
On to `CCOC(=O)Cc1nc2ccc3c(c2nc1O)C(=O)c1ccccc1C3=O`, for which the GI50 in [1] is 23.7 µM (inactive); in [2] it was 20.5 µM (inactive); in experiment [3] it was 3.61 µM (inactive); in [4], 31.5 µM (inactive); in [5], 28.2 µM (inactive); in experiment [6] it was 60.4 µM (inactive). The GI50 in [7] is 25.5 µM (inactive); in [8], 60.7 µM (inactive); in [9], 35.4 µM (inactive); in experiment [10], 46.5 µM (inactive); in [11] it was > 100 µM (inactive); in experiment [12], 31.6 µM (inactive). In addition, the GI50 in [14] was 13.6 µM (inactive); in experiment [15], 8.09 µM (inactive); in [16], 38.5 µM (inactive); in experiment [17], 26.1 µM (inactive); in experiment [18], > 100 µM (inactive); in experiment [19] it was 56 µM (inactive). The GI50 in experiment [20] is 35.4 µM (inactive).
With `Cc1cc(Cl)ccc1Nc1nc2c(s1)C(=O)c1ccccc1C2=O`, the GI50 in experiment [1] is 5.45 µM (inactive); in experiment [2] it was 2.2 µM (inactive); in experiment [3] it was 9.04 µM (inactive); in [4] it was 2.12 µM (inactive); in [5], 5.13 µM (inactive); in experiment [6], 13.9 µM (inactive). Further, the GI50 is 1.53 µM (inactive) in [7]; 1.45 µM (inactive) in experiment [8]; 3.32 µM (inactive) in experiment [9]; 3.29 µM (inactive) in [10]; 4.55 µM (inactive) in [11]; 2.88 µM (inactive) in experiment [12]. Also, the GI50 in experiment [13] was 1.82 µM (inactive); in experiment [14], 2.92 µM (inactive); in [15], 7.28 µM (inactive); in experiment [16], 3.24 µM (inactive); in [17], 1.82 µM (inactive); in [18] it was 4.75 µM (inactive). Also, the GI50 is 1.94 µM (inactive) in experiment [19] and 4.45 µM (inactive) in [20].
`CCC(C)SC1SCC2C(=O)N(C)C3(CC3C)C(=O)OCC(NC(=O)c3nc4ccccc4cc3O)C(=O)NC(C)C(=O)N(C)C1C(=O)N(C)C1(CC1C)C(=O)OCC(NC(=O)c1nc3ccccc3cc1O)C(=O)NC(C)C(=O)N2C` (centres undefined): the 50% growth inhibitory concentration (GI50) in experiment [1] is 0.0002 µM (active); in experiment [2], 0.000107 µM (active); in experiment [3], 0.00038 µM (active); in [5] it was 5.64e-05 µM (active); in [6], 5.87e-05 µM (active); in experiment [7], 2.6e-05 µM (active). Moreover, the GI50 in experiment [8] is 4.12e-05 µM (active); in [9], 4.82e-05 µM (active); in experiment [11], 0.00018 µM (active); in experiment [12], 9.1e-05 µM (active); in experiment [13], 0.000116 µM (active); in experiment [14], 4.15e-05 µM (active). Moreover, the GI50 in experiment [15] is 4.76e-05 µM (active); in experiment [16], 4.81e-05 µM (active); in experiment [18] it was 4.79e-05 µM (active); in [19], 4.78e-05 µM (active); in experiment [20] it was 0.00275 µM (active).

The GI50 is the concentration giving 50% growth inhibition.
